Data taken from PMC4257560, “Synthesis and Functional Characterization of Substituted Isoquinolinones as MT2-Selective Melatoninergic Ligands” (PLoS ONE, 2014).
Like-named read-outs stand apart in the source and are kept apart here. Marks after values point to notes of the source that are not given here.

Key:
[1] = molecular target: T1, MT2 (Homo sapiens, UniProt P49286)
T1 sequence (P49286 1-362): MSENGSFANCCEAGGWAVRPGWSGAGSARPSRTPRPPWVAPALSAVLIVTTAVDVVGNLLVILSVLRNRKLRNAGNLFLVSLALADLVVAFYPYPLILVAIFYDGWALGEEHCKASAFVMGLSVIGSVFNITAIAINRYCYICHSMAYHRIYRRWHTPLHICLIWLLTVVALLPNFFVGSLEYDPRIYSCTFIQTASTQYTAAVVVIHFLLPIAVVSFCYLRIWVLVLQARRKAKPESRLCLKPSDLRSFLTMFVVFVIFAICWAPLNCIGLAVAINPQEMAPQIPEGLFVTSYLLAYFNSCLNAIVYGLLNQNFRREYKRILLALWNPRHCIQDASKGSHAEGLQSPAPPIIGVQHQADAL
Procedure: (§8) Competitive receptor binding characteristics of melatonin and the 15 tested compounds towards human MT1 and MT2 stably expressed in Chinese hamster ovary (CHO) cells were determined using intact cell preparation pre-incubated with 1 nM [^3H]melatonin.
(§9) Individual melatonin receptor subtype (either MT1 or MT2) was stably co-expressed with a G protein chimera 16z25 in Chinese hamster ovary (CHO) cells, hereafter denoted as CHO-hMT1 and CHO-hMT2, respectively. […] Single cell-derived colonies of the stable lines with sufficiently high receptor density and robust responses in the fluorometric assay (as described below) were isolated from the pool of transfected cell. Usage of these clonal lines was limited to 15 passages to prevent degradation of signal detection.
(§10) Competitive binding assays were performed as described [26]. Cells were suspended in binding buffer (50 mM Tris, 2 mM MgCl2, 1 mM EGTA, pH 7.4) in the density of 1.5×10^5 cell/ml. 1 nM [^3H]melatonin and increasing concentrations of a tested compound was included. Cells were incubated at 4°C for 60 min with intermittent agitation and the reaction was stopped by rapid filtration through GF/C filters pre-soaked in 10 mM Tris, pH 7.4 and washed with 1 ml of prechilled binding buffer. Retained radioactivity was measured with Wallac 1450 Microbeta Jet scintillation counter. Competition curves were drawn as one-site competition nonlinear regression model using GraphPad Prism 3.03 to the data which were means ± SEM of 3–4 independent experiments performed in duplicates. In every assay, melatonin was included as standard reference with highly reproducible Ki values, which were calculated using the Cheng-Prusoff equation.

[2] = molecular target: T2, MT1 (Homo sapiens, UniProt P48039); test: biochemical; details: for Emax: read-out: MT1 %Resp±SEM (percentage of melatonin-mediated displacement of radioligand binding)
Procedure: as §8, §9, §10

[3] = molecular target: T1, MT2; test: biochemical; details: for Ki: MT2 Ki, calculated from mean pIC50 (Cheng-Prusoff), 1 nM [3H]melatonin, intact CHO cells; for Emax: read-out: MT2 %Resp±SEM (percentage of melatonin-mediated displacement of radioligand binding)
Procedure: as §8, §9, §10

[4] = molecular target: T2, MT1; test: Intracellular Ca2+ mobilization (FLIPR) in MT1-CHO cells co-expressing 16z25; assay type: cell-based; set-up: expressed in transfected cells; details: for MT1 %Resp ±SEM, Ca2+ signal: percentage of melatonin (MT)-mediated stimulation of Ca2+ signal
Procedure: (§1) Tested compounds in different concentrations were diluted in assay buffer in 5× of the final desired concentrations in a V-bottomed microplate, and both the cell and compound plates were put into the fluorometric imaging plate reader FLIPR^TETRA (Molecular Devices, Sunnyvale, CA). […] The peak of the time course of fluorescence changes was expressed in relative fluorescence units (RFU). Dose response curves were constructed by non-linear regression using GraphPad Prism 3.

[5] = molecular target: T1, MT2; test: Intracellular Ca2+ mobilization (FLIPR) in MT2-CHO cells co-expressing 16z25; assay type: cell-based; set-up: expressed in transfected cells; details: for EC50 / Ca2+ mobilization activity at MT2 (in words) / MT2 EC50, Ca2+ mobilization: MT2-CHO cells, FLIPR; for Emax: MT2, percentage of melatonin (MT)-mediated stimulation of Ca2+ signal, read-out: MT2 %Resp ±SEM, Ca2+ signal; for shift of melatonin dose-response curve in FLIPR assay, MT2-CHO (competitive antagonism): preincubation with 10 µM or 1 µM of 7e or 7f
Procedure: as §1

[6] = molecular target: T2, MT1; test: Inhibition of forskolin-stimulated cAMP accumulation in MT1-CHO cells; assay type: cell-based; set-up: expressed in transfected cells
Procedure: (§2) Both MT1 and MT2 are classified as Gi-coupled receptors with their activation leading to inhibition of intracellular cAMP production. The ability of the tested compounds to activate the endogenously expressed Gi-mediated inhibition of cAMP production was therefore examined.
(§3) All the responses were expressed as the percentage of that induced by forskolin alone (as 100%).
(§4) 2×10^5 cells were seeded in each well of 12-well plates and grown for overnight. Each well was labeled with 1 ml of [^3H]adenine (1 µCi/ml) in F-12K medium containing 1% FBS (vol/vol) for overnight. The labeling media were then replaced by 1 ml of 20 mM HEPES-buffered F-12K containing 1 mM isobutylmethylxanthine (IBMX) and the tested compounds at desired concentrations, and incubated at 37°C for 30 min. The reaction was stopped by aspiration and adding 1 ml prechilled 5% trichloroacetic acid (w/v) with 1 mM ATP, and stored at 4°C for 30 min. [^3H]cAMP was extracted from the pool of labeled adenosine nucleotides by sequential ion-exchange chromatography as previously described. The radioactivity of labeled cAMP and total labeled nucleotide fractions separated by chromatography were estimated by scintillation counting. Inhibition curves were constructed by non-linear regression using GraphPad Prism 3.

[7] = molecular target: T1, MT2; test: Inhibition of forskolin-stimulated cAMP accumulation in MT2-CHO cells; assay type: cell-based; set-up: expressed in transfected cells; details: for IC50: MT2-CHO cells, 50 µM forskolin
Procedure: as §2, §3, §4

[8] = molecular target: T2, MT1; test: Immunodetection of ERK phosphorylation in MT1-CHO cells; assay type: cell-based; set-up: expressed in transfected cells; details: for concentration inducing weak ERK phosphorylation in MT1-CHO cells: immunoblot
Procedure: (§5) CHO cells expressing MT1 or MT2 were serum-starved before treating with the indicated concentrations of melatonin or individual tested compounds. Resolved proteins were electrotransferred for immunodetection using phosphorylated ERK-specific antibody.
(§6) (A) CHO cells expressing MT1 or MT2 were treated with the indicated concentrations of 7e or luzindole in the absence or presence of a fixed concentration of melatonin (MLT) (for both MT1 or MT2) or 7b (for MT2 only). Other experimental details were as to the legend of Figure 5. Data shown were representative blots of three separate trials. (B) CHO cells expressing MT2 were treated with increasing concentrations (1 ρM – 1 µM) of melatonin in the absence or presence of 10 µM or 1 µM of 7e or 7f. Other experimental details were as to the legend of Figure 4.
(§7) 2×10^5 cells were seeded into each well of 12-well plates for overnight before serum withdrawal for 4 h to reduce the basal ERK phosphorylation. Tested compounds were diluted in serum-free culture medium at desired concentrations and treated the cells for 5 min. Reactions was stopped by aspiration and then adding 150 µl of lysis buffer with protease inhibitors (50 mM Tris–HCl, pH 7.5, 100 mM NaCl, 5 mM EDTA, 40 mM NaP2O7, 1% Triton X-100, 1 mM dithiothreitol, 200 µM Na3VO4, 100 µM phenylmethylsulfonyl fluoride, 2 µg/ml leupeptin, 4 µg/ml aprotinin, and 0.7 µg/ml pepstain). Cells were allowed to lyse for 30 min at 4°C with agitation, and the collected total cell lysates were cleared by centrifugation. Protein samples were resolved in SDS-PAGE and transferred to nitrocellulose membranes using iBlot system (Invitrogen). Phosphorylated ERK was detected using specific antibodies as described previously. Chemiluminescence signals on the blots were detected on X-ray films.

[9] = molecular target: T2, MT1; details: 1 nM [3H]melatonin, intact CHO cells, 4°C 60 min; mean ± SEM of 3–5 trials; NSB = no specific binding for up to 30 µM
Procedure: as §8, §9, §10

[10] = molecular target: T1, MT2; test: Immunodetection of ERK phosphorylation in MT2-CHO cells; assay type: cell-based; set-up: expressed in transfected cells; details: for suppression of melatonin-induced ERK phosphorylation in MT2-CHO cells (antagonism): 1 nM melatonin (MLT), 7e and 7f at 10 µM; for suppression of 7b-induced ERK phosphorylation in MT2-CHO cells (antagonism): agonist 7b 100 nM, 7e at 10 µM; for ERK phosphorylation in MT2-CHO cells (in words): immunoblot
Procedure: as §5, §6, §7

[11] = calculated from mean pEC50, NSR = no significant response for up to 30 µM, read-out: MT2 EC50, Ca2+ mobilization
[12] = calculated from mean pEC50, NSR = no significant response for up to 30 µM
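For MT1 pIC50±SEM in this document: competitive radioligand displacement on intact CHO cells stably co-expressing human MT1 together with the G protein chimera 16z25, using rising concentrations of each compound.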
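For Selectivity, ratio Ki(MT1)/Ki(MT2) in this document: competition binding on intact CHO cells stably co-expressing human MT2 with G protein chimera 16z25, displacing [3H]melatonin at 4°C over 60 min, melatonin run as reference.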
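For displacement of pre-incubated [3H]melatonin at MT2 (in words) in this document: competition binding on intact CHO cells stably co-expressing human MT2 with G protein chimera 16z25, displacing [3H]melatonin at 4°C over 60 min, melatonin run as reference.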

T2 sequence (P48039 whole entry): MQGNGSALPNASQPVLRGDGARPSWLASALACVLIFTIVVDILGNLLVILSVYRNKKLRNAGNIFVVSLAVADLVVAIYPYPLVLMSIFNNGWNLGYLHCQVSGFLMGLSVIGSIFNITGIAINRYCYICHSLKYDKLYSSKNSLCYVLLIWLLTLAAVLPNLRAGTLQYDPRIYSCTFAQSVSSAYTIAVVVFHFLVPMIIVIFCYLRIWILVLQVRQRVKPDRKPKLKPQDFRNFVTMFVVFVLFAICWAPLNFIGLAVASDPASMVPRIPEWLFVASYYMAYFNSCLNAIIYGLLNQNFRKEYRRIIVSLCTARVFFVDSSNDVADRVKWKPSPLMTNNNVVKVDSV

| Structure (SMILES) | melting point [°C] | Selectivity, ratio Ki(MT1)/Ki(MT2) [1] | IC50 [2] [nM] | Ki [2] [nM] | Emax [2] [%] | IC50 [3] [nM] | Ki [3] [nM] | Emax [3] [%] | MT1 pIC50±SEM [9] | Ca2+ mobilization activity at MT2 (in words) [5] | MT2 EC50, Ca2+ mobilization [5, 12] | suppression of melatonin-induced ERK phosphorylation in MT2-CHO cells (antagonism) [10] | also measured |
| --- | --- | --- | --- | --- | --- | --- | --- | --- | --- | --- | --- | --- | --- |
| COc1cccc(COc2cc3ccn(C)c(=O)c3cc2OC)c1 [7b, 7-Methoxy-6-(3-methoxy-benzyloxy)-2-methylisoquinolin-1(2H)-one] | 85 to 87 | 139 | 16200 | 3700 | 90 ± 8 | 89.1 | 26.6 | 92 ± 4 |  |  |  |  | displacement of pre-incubated [3H]melatonin at MT2 (in words) ([1]; competitive binding, intact CHO cells): completely displaced; EC50 [4]: 31.1 nM; MT1 %Resp ±SEM, Ca2+ signal [4]: 63±7%; EC50 [5, 11]: 0.3 nM; EC50 ([5]; mean ± SEM of 3–5 trials, read-out: MT2 pEC50 ±SEM, Ca2+ mobilization (converted)): 0.288 nM; Emax [5]: 92 ± 11%; inhibition of cAMP levels in MT1-CHO cells (in words) ([6]; forskolin-stimulated): observable inhibition; MT1 %Inhmax ±SEM ([6]; maximal percentage inhibition of the forskolin-elevated cAMP level, MT1-CHO): 69±8%; IC50 ([6]; read-out: MT1 IC50, inhibition of cAMP production): 1200 nM; IC50 ([7]; mean ± SEM of 2 trials, read-out: MT2 pIC50 ±SEM, inhibition of cAMP production (converted)): 63.1 nM; MT2 %Inhmax ±SEM ([7]; maximal percentage inhibition of the forskolin-elevated cAMP level, MT2-CHO): 70±3%; concentration inducing weak ERK phosphorylation in MT1-CHO cells [8]: > 1 µM |
| COc1cc(COc2cc3ccn(C)c(=O)c3cc2OC)cc(OC)c1 [7c, 6-(3,5-Dimethoxy-benzyloxy)-7-methoxy-2-methylisoquinolin-1(2H)-one] |  | 37.6 | 57500 | 13100 | 41 ± 9 | 1170 | 350 | 73 ± 9 |  |  |  |  | EC50 [4]: 266 nM; MT1 %Resp ±SEM, Ca2+ signal [4]: 65±10%; EC50 [5, 11]: 21 nM; Emax [5]: 90 ± 16%; concentration to induce exclusive MT2 activation (Ca2+ signal) ([5]; from concentration response curves, Figure 4): < 10 nM; fold less potent than 7b (EC50, Ca2+ signal, MT2) ([5]; relative to 7b, MT2-CHO): ~70 fold; MT1 IC50, inhibition of cAMP production ([6]; MT1-CHO cells, 50 µM forskolin, calculated from mean pIC50, NSR = no significant response for up to 10 µM): NSR ^b; IC50 ([7]; calculated from mean pIC50, read-out: MT2 IC50, inhibition of cAMP production): 2460 nM; MT2 %Inhmax ±SEM, extrapolated ([7]; extrapolated %Inhmax from non-linear regression, MT2-CHO): 72±3 ^c %; concentration inducing weak ERK phosphorylation in MT1-CHO cells [8]: > 1 µM |
| COc1ccc(COc2cc3ccn(C)c(=O)c3cc2OC)cc1 [7e, 7-Methoxy-6-(4-methoxy-benzyloxy)-2-methylisoquinolin-1(2H)-one] | 170 to 172 |  |  |  |  | 1120 | 334 | 47 ± 5 | NSB | null response | NSR | reduced to almost the basal level | shift of melatonin dose-response curve in FLIPR assay, MT2-CHO (competitive antagonism) [5]: parallel right shift; suppression of 7b-induced ERK phosphorylation in MT2-CHO cells (antagonism) [10]: significantly suppressed |
| COc1cc2c(=O)n(C)ccc2cc1OCc1ccc(C)cc1 [7f, 7-Methoxy-2-methyl-6-(4-methyl-benzyloxy)-isoquinolin-1(2H)-one] | 120 to 122 | 6.13 | 8910 | 2040 | 38 ± 10 | 1100 | 333 | 70 ± 6 |  |  | NSR | partial inhibition | shift of melatonin dose-response curve in FLIPR assay, MT2-CHO (competitive antagonism) [5]: parallel right shift |
| CC(=O)NCCc1c(Cc2ccccc2)[nH]c2ccccc12 [luzindole, reference compound] |  |  |  | 102 |  |  | 2.9 |  |  | weak but significant MT2-selective agonistic activity |  | blocked | suppression of melatonin-induced ERK phosphorylation in MT1-CHO cells (antagonism) ([8]; 1 nM melatonin (MLT)): blocked; effect on basal ERK phosphorylation in MT1-CHO cells ([8]; at 1 µM): completely eliminated basal ERK phosphorylation; suppression of 7b-induced ERK phosphorylation in MT2-CHO cells (antagonism) [10]: blocked; effect on basal ERK phosphorylation in MT2-CHO cells ([10]; luzindole alone): constantly enhanced |

Second part, led by results:

| melting point [°C] | Selectivity, ratio Ki(MT1)/Ki(MT2) [1] | IC50 [2] [nM] | Ki [2] [nM] | Emax [2] [%] | IC50 [3] [nM] | Ki [3] [nM] | Emax [3] [%] | MT1 pIC50±SEM [9] | Ca2+ mobilization activity at MT2 (in words) [5] | MT2 EC50, Ca2+ mobilization [5, 12] | suppression of melatonin-induced ERK phosphorylation in MT2-CHO cells (antagonism) [10] | Structure (SMILES) | also measured |
| --- | --- | --- | --- | --- | --- | --- | --- | --- | --- | --- | --- | --- | --- |
| 132 to 134 |  |  |  |  | 14800 | 4460 | 78 ± 8 | NSB | basically inactive | NSR |  | COc1cc2ccn(C)c(=O)c2cc1OCc1ccccc1 [14a, 7-Benzyloxy-6-methoxy-2-methylisoquinolin-1(2H)-one] | ERK phosphorylation in MT2-CHO cells (in words) [10]: essentially inactive |
| 150 to 152 |  |  |  |  | 13800 | 4150 | 73 ± 10 | NSB | basically inactive | NSR |  | COc1cc2ccn(C)c(=O)c2cc1OCc1ccc(C)cc1 [14d, 6-Methoxy-2-methyl-7-(4-methyl-benzyloxy)-isoquinolin-1(2H)-one] | ERK phosphorylation in MT2-CHO cells (in words) [10]: essentially inactive |
